Laboratory results from ChEMBL document CHEMBL5131445, “Optimization of a novel piperazinone series as potent selective peripheral covalent BTK inhibitors” (Bioorg Med Chem Lett, 2022).
pKd: −log10 of the molar value.

Assays:
[1] = molecular target: Tyrosine-protein kinase Blk (Homo sapiens, UniProt P51451); assay: Binding affinity to BLK (unknown origin) assessed as dissociation constant by KINOMEscan analysis
[2] = molecular target: Receptor tyrosine-protein kinase erbB-4 (Homo sapiens, UniProt Q15303); assay: Binding affinity to ERBB4 (unknown origin) assessed as dissociation constant by KINOMEscan analysis
[3] = molecular target: T1, Tyrosine-protein kinase Tec (Homo sapiens, UniProt P42680); assay: Binding affinity to TEC (unknown origin) assessed as dissociation constant by KINOMEscan analysis
T1 sequence (P42680 whole entry): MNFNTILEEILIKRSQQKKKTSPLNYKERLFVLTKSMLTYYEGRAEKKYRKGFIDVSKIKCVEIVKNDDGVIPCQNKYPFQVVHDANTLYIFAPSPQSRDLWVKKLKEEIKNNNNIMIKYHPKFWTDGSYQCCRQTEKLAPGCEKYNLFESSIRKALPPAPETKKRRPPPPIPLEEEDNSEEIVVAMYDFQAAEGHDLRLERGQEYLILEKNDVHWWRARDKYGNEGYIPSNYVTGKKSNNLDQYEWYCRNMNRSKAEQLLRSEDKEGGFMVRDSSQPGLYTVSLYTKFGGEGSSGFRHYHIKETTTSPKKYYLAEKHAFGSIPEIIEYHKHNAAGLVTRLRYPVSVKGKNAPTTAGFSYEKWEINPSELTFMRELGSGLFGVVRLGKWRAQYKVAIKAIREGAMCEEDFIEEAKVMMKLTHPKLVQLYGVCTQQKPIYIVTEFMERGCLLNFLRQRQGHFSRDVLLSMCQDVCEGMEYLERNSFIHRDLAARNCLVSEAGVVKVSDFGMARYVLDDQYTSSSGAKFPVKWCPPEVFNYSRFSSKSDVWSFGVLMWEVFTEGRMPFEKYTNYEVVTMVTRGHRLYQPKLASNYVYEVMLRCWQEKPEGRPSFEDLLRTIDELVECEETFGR

[4] = molecular target: T2, Tyrosine-protein kinase JAK3 (Homo sapiens, UniProt P52333); assay: Binding affinity to JAK3 (unknown origin) assessed as dissociation constant by KINOMEscan analysis
T2 sequence (P52333 whole entry): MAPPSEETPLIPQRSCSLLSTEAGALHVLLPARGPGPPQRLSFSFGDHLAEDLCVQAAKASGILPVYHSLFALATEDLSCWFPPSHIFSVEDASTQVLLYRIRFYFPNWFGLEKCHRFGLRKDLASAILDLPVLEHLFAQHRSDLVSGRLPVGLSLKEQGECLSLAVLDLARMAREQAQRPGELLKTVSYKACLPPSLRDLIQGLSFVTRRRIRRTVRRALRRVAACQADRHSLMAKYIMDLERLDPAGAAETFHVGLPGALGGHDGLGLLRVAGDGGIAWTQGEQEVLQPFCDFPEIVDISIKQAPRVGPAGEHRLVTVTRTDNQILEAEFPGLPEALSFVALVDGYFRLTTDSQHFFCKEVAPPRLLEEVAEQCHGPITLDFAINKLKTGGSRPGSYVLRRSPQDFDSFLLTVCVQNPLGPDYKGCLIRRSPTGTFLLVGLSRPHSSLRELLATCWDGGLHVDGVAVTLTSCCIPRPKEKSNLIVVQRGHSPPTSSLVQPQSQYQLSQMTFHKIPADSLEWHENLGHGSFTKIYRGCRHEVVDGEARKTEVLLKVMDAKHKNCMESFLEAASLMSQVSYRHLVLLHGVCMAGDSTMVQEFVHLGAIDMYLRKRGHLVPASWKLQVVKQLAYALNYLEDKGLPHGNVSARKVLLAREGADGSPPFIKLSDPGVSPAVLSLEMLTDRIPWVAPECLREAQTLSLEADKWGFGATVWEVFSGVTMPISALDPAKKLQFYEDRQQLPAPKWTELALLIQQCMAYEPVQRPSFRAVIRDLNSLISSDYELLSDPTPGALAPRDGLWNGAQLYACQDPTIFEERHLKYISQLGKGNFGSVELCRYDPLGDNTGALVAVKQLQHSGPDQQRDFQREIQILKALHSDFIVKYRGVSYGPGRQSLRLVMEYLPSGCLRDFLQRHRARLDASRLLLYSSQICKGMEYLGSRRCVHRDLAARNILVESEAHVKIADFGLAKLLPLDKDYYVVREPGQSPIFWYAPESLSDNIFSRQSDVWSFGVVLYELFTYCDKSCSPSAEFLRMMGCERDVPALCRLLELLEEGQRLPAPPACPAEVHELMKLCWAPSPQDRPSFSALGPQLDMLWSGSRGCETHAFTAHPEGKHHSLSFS

[5] = molecular target: Epidermal growth factor receptor (Homo sapiens, UniProt P00533); assay: Binding affinity to EGFR (unknown origin) assessed as dissociation constant by KINOMEscan analysis
[6] = molecular target: T3, Tyrosine-protein kinase TXK (Homo sapiens, UniProt P42681); assay: Binding affinity to TXK (unknown origin) assessed as dissociation constant by KINOMEscan analysis
T3 sequence (P42681 whole entry): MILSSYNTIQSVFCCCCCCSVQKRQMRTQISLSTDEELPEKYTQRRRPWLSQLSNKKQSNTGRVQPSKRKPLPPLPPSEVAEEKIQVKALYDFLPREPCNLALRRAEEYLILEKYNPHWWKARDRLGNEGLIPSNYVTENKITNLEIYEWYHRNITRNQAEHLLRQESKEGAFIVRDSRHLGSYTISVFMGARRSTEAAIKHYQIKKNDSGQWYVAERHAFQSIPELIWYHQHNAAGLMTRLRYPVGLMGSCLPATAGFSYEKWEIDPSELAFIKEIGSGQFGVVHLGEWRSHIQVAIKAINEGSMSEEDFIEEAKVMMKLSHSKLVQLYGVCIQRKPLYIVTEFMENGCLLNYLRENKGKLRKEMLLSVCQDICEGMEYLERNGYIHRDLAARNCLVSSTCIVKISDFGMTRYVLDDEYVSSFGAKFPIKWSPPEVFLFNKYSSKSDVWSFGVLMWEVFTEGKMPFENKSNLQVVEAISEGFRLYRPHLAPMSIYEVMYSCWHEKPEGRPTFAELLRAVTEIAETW

[7] = molecular target: T4, Tyrosine-protein kinase ITK/TSK (Homo sapiens, UniProt Q08881); assay: Binding affinity to ITK (unknown origin) assessed as dissociation constant by KINOMEscan analysis
T4 sequence (Q08881 whole entry): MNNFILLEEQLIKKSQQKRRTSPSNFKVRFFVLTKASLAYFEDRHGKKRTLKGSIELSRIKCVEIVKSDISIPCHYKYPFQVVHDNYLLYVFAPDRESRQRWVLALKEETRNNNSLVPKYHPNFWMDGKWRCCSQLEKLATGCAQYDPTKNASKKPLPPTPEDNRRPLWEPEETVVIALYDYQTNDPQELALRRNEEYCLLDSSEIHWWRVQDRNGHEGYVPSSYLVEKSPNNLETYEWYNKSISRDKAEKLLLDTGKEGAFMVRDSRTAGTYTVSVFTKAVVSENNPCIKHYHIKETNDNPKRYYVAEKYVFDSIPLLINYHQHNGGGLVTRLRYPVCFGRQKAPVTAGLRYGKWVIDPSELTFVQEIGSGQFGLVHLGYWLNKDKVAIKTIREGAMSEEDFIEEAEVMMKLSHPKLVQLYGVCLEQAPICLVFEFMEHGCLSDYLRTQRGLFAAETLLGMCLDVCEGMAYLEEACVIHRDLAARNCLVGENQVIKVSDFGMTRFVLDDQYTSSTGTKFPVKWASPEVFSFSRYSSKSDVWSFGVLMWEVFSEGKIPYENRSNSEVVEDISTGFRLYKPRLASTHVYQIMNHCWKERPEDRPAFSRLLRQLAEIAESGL

[8] = molecular target: Receptor tyrosine-protein kinase erbB-2 (Homo sapiens, UniProt P04626); assay: Binding affinity to ERBB2 (unknown origin) assessed as dissociation constant by KINOMEscan analysis
Chain of Receptor tyrosine-protein kinase erbB-2 (P04626 whole entry): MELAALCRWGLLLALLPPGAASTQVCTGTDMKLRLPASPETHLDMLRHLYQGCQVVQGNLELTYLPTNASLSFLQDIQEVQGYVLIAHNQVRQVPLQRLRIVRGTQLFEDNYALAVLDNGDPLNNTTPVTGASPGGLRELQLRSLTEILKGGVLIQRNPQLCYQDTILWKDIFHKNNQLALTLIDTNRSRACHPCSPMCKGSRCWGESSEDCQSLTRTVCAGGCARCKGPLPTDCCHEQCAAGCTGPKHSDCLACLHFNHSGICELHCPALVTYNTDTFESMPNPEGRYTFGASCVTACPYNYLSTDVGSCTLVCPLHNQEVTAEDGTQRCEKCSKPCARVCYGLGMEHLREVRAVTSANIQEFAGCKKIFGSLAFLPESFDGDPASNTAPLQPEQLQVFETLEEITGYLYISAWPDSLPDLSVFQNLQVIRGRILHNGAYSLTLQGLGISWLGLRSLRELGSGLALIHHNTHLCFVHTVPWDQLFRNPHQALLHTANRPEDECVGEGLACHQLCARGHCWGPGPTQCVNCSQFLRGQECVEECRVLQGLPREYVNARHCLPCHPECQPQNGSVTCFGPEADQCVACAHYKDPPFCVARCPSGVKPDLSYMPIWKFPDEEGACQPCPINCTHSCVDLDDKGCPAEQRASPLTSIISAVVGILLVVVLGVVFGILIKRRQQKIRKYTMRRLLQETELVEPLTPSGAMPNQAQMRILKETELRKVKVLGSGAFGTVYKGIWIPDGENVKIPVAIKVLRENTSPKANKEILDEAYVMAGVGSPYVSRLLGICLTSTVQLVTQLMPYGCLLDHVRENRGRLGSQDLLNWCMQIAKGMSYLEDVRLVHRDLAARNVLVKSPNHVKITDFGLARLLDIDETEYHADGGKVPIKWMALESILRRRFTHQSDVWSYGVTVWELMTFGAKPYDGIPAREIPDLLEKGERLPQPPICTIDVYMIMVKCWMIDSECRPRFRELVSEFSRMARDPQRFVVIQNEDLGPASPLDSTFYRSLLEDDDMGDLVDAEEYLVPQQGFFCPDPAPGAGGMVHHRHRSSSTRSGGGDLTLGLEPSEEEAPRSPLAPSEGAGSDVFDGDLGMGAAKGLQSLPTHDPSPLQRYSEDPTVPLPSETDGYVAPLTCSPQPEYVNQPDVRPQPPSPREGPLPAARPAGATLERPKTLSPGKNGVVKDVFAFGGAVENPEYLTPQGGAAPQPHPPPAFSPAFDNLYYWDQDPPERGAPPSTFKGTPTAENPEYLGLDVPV

Chain of Receptor tyrosine-protein kinase erbB-4 (Q15303 whole entry): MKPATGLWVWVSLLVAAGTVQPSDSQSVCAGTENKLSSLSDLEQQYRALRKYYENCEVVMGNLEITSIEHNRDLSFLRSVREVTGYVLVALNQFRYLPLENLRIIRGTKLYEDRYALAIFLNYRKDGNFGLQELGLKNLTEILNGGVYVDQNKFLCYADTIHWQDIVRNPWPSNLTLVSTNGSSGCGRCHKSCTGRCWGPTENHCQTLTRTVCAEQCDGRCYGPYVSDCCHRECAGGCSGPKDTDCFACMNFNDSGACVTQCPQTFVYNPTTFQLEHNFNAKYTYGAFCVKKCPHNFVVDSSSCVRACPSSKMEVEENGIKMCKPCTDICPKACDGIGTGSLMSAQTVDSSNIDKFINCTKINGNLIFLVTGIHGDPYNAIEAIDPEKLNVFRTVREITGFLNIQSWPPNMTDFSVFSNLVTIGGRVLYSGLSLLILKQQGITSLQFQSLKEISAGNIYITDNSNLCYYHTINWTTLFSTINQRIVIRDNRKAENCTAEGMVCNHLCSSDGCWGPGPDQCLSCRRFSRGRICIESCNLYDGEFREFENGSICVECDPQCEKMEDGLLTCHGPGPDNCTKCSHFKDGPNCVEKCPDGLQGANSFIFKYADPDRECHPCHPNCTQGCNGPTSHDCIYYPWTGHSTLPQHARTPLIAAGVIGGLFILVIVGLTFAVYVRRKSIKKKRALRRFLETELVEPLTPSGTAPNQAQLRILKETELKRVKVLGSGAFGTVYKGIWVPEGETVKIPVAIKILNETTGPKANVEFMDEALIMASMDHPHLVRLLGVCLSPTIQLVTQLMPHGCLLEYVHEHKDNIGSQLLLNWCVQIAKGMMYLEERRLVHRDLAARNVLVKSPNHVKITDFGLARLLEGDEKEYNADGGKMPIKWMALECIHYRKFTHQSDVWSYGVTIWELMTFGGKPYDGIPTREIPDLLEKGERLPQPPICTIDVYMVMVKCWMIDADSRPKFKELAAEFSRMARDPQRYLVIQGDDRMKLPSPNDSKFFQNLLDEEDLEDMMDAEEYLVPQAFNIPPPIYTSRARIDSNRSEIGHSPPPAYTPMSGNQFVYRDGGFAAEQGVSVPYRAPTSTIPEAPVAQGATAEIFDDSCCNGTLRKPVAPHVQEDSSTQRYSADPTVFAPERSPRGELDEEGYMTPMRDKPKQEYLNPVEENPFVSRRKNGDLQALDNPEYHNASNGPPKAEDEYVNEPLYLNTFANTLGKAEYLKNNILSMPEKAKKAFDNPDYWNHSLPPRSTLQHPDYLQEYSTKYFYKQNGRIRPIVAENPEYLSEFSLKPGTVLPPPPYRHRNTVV
Chain of Tyrosine-protein kinase Blk (P51451 whole entry): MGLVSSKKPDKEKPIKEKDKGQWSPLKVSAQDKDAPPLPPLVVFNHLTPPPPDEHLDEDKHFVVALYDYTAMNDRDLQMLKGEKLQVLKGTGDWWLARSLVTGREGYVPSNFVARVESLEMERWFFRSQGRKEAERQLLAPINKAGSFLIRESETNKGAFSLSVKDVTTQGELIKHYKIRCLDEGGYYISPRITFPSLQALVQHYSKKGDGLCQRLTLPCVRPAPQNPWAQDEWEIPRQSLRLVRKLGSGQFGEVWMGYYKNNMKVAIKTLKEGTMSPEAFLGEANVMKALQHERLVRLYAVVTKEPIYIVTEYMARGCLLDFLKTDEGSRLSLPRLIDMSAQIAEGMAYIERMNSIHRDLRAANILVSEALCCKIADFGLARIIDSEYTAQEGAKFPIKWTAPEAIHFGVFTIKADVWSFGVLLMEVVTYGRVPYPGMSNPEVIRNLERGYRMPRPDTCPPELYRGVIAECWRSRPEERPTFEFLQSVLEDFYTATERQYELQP
Chain of Epidermal growth factor receptor (P00533 whole entry): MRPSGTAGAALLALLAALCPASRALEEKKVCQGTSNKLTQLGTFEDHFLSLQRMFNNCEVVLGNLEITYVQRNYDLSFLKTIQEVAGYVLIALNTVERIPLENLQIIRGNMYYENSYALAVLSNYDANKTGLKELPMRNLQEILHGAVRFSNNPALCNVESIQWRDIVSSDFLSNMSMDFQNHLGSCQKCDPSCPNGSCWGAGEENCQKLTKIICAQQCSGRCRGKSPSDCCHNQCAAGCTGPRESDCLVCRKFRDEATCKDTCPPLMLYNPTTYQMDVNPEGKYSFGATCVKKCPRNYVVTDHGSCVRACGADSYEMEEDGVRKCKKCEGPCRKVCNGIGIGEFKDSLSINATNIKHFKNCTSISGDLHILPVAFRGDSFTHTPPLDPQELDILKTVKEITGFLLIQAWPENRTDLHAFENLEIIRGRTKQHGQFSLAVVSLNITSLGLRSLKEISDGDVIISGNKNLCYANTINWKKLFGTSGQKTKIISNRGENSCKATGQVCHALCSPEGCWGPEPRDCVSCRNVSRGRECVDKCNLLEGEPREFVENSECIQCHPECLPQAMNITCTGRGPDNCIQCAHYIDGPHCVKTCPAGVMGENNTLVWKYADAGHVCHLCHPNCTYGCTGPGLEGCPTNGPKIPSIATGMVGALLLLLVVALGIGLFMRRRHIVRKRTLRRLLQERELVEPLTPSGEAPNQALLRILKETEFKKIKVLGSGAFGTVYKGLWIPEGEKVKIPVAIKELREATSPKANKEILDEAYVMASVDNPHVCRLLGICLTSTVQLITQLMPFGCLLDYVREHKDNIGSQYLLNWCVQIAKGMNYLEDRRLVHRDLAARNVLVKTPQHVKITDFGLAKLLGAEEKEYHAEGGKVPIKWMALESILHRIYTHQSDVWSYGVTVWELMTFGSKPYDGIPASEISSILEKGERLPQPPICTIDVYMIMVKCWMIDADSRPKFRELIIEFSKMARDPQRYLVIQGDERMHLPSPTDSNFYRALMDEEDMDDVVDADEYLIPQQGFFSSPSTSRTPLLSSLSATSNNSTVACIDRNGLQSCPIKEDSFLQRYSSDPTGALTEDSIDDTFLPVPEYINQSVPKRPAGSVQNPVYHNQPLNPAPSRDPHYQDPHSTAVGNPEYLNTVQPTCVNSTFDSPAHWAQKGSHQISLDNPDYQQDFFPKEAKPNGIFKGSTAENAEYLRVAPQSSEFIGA

- pKd [1]: 5.39
- pKd [2]: 4.52
- pKd [3]: 6.68
- pKd [4]: 4.64
- pKd [5]: 4.52
- pKd [6]: 5.70
- pKd [7]: 6.72
- pKd [8]: 4.52
SMILES: C[C@@H]1CN(C2COC2)CCN1c1ccc(Nc2cc(-c3ccnc(N4CCn5c(cc6c5CC(C)(C)C6)C4=O)c3CO)cn(C)c2=O)nc1
